In BindingDB's records for doi:10.1021/acschembio.5b00398 (University of Oxford, 2015):

Assays:
Assay in all cases: EMSA
[1] = target: Cyclin-dependent kinase 2 (Homo sapiens, UniProt P24941)
Method: (§1) First, 4.5 μL of 2× kinase solution was added to 0.05 μL of compound (maximum concentration 1.8 mM in 90% DMSO and 10% H2O). To allow for possible slow association, plates with type II inhibitors were incubated for 60 min at 30 °C. The assay started after the addition of 4.5 μL of 2× peptide with ATP and was run for 60 min at 30 °C, after which 16 μL of stop solution was added (100 mM HEPES pH 7.5, 5% DMSO, 0.1% coating reagent (Caliper Lifescience) 10 mM EDTA, pH 8.0, 0.015% BRIJ35). All reactions were performed in 50 mM HEPES, pH 7.5, 1 mM DTT, 0.02% Tween 20, 0.02% BSA, 10 mM betaglycerophosphate, 0.01 mM Na3VO4, 0.6% DMSO, and 2 μM peptide.

[2] = target: Cyclin-dependent kinase 2 [C118I] (Homo sapiens, UniProt P24941, C118I)
Method: as §1

[3] = target: Cyclin-dependent kinase 2 [A144C] (Homo sapiens, UniProt P24941, A144C)
Method: as §1

[4] = target: Cyclin-dependent kinase 2 [A144G] (Homo sapiens, UniProt P24941, A144G)
Method: as §1

[5] = target: Cyclin-dependent kinase 2 [C118L,A144C] (Homo sapiens, UniProt P24941, A144C/C118L)
Method: as §1

[6] = target: Cyclin-dependent kinase 2 [F80T] (Homo sapiens, UniProt P24941, F80T)
Method: as §1

[7] = target: Cyclin-dependent kinase 2 [C118L] (Homo sapiens, UniProt P24941, C118L)
Method: as §1

[8] = target: Cyclin-dependent kinase 2 [F80M] (Homo sapiens, UniProt P24941, F80M)
Method: as §1

IC50 [1]: > 10 µM | IC50 [2]: > 10 µM | IC50 [3]: > 10 µM | IC50 [4]: > 10 µM | IC50 [5]: > 10 µM | IC50 [6]: 7.1 µM | IC50 [7]: > 10 µM | IC50 [8]: > 10 µM
SMILES: CC(=O)Nc1cc(Oc2ccc3c(C(=O)Nc4ccc(CN5CCN(C)CC5)c(C(F)(F)F)c4)cccc3c2)ncn1 [K03859 (2)]
